Source: ChEMBL document CHEMBL1681699 (Bioorg Med Chem, 2011)

What was measured:
[1] = tested on: Brain; test: Biodistribution in Sprague-Dawley rat brain at 3.7 x 10^3 to 5.55 x 10'3 GBq, iv after 30 mins; type: ADME, organism-based; conditions: in vivo, 0.5 h
[2] = tested on: Brain; test: Metabolic stability in Sprague-Dawley rat brain assessed as 4-(1-Methyl-4-pyridin-4-yl-1H-pyrazol-3-yl)-phenol remaining after 40 mins; type: ADME, tissue-based
[3] = tested on: Cerebellum; test: Biodistribution in Sprague-Dawley rat cerebellum at 3.7 x 10'3 to 5.55 x 10^3 GBq, iv after 60 mins; type: ADME, organism-based; conditions: in vivo, 1 h
[4] = tested on: Blood; test: Biodistribution in Sprague-Dawley rat blood at 3.7 x 10^3 to 5.55 x 10^3 GBq, iv after 60 mins; type: ADME, organism-based; conditions: in vivo, 1 h
[5] = tested on: Plasma; test: Metabolic stability in Sprague-Dawley rat plasma assessed as 4-(1-Methyl-4-pyridin-4-yl-1H-pyrazol-3-yl)-phenol remaining after 2 mins; type: ADME, cell-free
[6] = tested on: Muscle tissue; test: Biodistribution in Sprague-Dawley rat muscle at 3.7 x 10^3 to 5.55 x 10'3 GBq, iv after 30 mins; type: ADME, organism-based; conditions: in vivo, 0.5 h
[7] = tested on: Brain; test: Metabolic stability in Sprague-Dawley rat brain assessed as 4-(1-Methyl-4-pyridin-4-yl-1H-pyrazol-3-yl)-phenol remaining after 20 mins; type: ADME, tissue-based
[8] = tested on: Kidney; test: Biodistribution in Sprague-Dawley rat kidney at 3.7 x 10^3 to 5.55 x 10^3 GBq, iv after 5 mins; type: ADME, organism-based; conditions: in vivo
[9] = Biodistribution in Sprague-Dawley rat hippocampus at 3.7 x 10^3 to 5.55 x 10^3 GBq, iv after 5 mins; type: ADME, organism-based; conditions: in vivo
[10] = tested on: Striatum; test: Biodistribution in Sprague-Dawley rat striatum at 3.7 x 10^3 to 5.55 x 10^3 GBq, iv after 60 mins; type: ADME, organism-based; conditions: in vivo, 1 h
[11] = tested on: Blood; test: Biodistribution in Sprague-Dawley rat blood at 3.7 x 10^3 to 5.55 x 10^3 GBq, iv after 5 mins; type: ADME, organism-based; conditions: in vivo
[12] = tested on: Cortex; test: Biodistribution in Sprague-Dawley rat cortex at 3.7 x 10^3 to 5.55 x 10^3 GBq, iv after 5 mins; type: ADME, organism-based; conditions: in vivo
[13] = Biodistribution in Sprague-Dawley rat fat at 3.7 x 10^3 to 5.55 x 10'3 GBq, iv after 30 mins; type: ADME, organism-based, Adipose tissue; conditions: in vivo, 0.5 h
[14] = tested on: Liver; test: Biodistribution in Sprague-Dawley rat liver at 3.7 x 10^3 to 5.55 x 10'3 GBq, iv after 30 mins; type: ADME, organism-based; conditions: in vivo, 0.5 h
[15] = tested on: Heart; test: Biodistribution in Sprague-Dawley rat heart at 3.7 x 10^3 to 5.55 x 10^3 GBq, iv after 60 mins; type: ADME, organism-based; conditions: in vivo, 1 h
[16] = tested on: Testes; test: Biodistribution in Sprague-Dawley rat testes at 3.7 x 10^3 to 5.55 x 10'3 GBq, iv after 30 mins; type: ADME, organism-based, Testis; conditions: in vivo, 0.5 h
[17] = tested on: Lung; test: Biodistribution in Sprague-Dawley rat lung at 3.7 x 10^3 to 5.55 x 10'3 GBq, iv after 30 mins; type: ADME, organism-based; conditions: in vivo, 0.5 h
[18] = tested on: Cortex; test: Biodistribution in Sprague-Dawley rat cortex at 3.7 x 10^3 to 5.55 x 10^3 GBq, iv after 60 mins; type: ADME, organism-based; conditions: in vivo, 1 h
[19] = Biodistribution in Sprague-Dawley rat hippocampus at 3.7 x 10^3 to 5.55 x 10'3 GBq, iv after 30 mins; type: ADME, organism-based; conditions: in vivo, 0.5 h
[20] = tested on: Cerebellum; test: Biodistribution in Sprague-Dawley rat cerebellum at 3.7 x 10'3 to 5.55 x 10^3 GBq, iv after 5 mins; type: ADME, organism-based; conditions: in vivo
[21] = tested on: Muscle tissue; test: Biodistribution in Sprague-Dawley rat muscle at 3.7 x 10^3 to 5.55 x 10^3 GBq, iv after 60 mins; type: ADME, organism-based; conditions: in vivo, 1 h
[22] = Metabolic stability in Sprague-Dawley rat brain assessed as radioactive compound remaining after 40 mins; type: ADME, tissue-based; conditions: read-out: Stability
[23] = Biodistribution in Sprague-Dawley rat fat at 3.7 x 10^3 to 5.55 x 10^3 GBq, iv after 5 mins; type: ADME, organism-based, Adipose tissue; conditions: in vivo
[24] = tested on: Striatum; test: Biodistribution in Sprague-Dawley rat striatum at 3.7 x 10^3 to 5.55 x 10'3 GBq, iv after 30 mins; type: ADME, organism-based; conditions: in vivo, 0.5 h
[25] = tested on: Heart; test: Biodistribution in Sprague-Dawley rat heart at 3.7 x 10^3 to 5.55 x 10^3 GBq, iv after 5 mins; type: ADME, organism-based; conditions: in vivo
[26] = tested on: Brain; test: Biodistribution in Sprague-Dawley rat brain at 3.7 x 10^3 to 5.55 x 10^3 GBq, iv after 5 mins; type: ADME, organism-based; conditions: in vivo
[27] = tested on: Cortex; test: Biodistribution in Sprague-Dawley rat cortex at 3.7 x 10^3 to 5.55 x 10'3 GBq, iv after 30 mins; type: ADME, organism-based; conditions: in vivo, 0.5 h
[28] = tested on: Brain; test: Biodistribution in Sprague-Dawley rat brain at 3.7 x 10^3 to 5.55 x 10^3 GBq, iv after 60 mins; type: ADME, organism-based; conditions: in vivo, 1 h
[29] = Biodistribution in Sprague-Dawley rat fat at 3.7 x 10^3 to 5.55 x 10^3 GBq, iv after 60 mins; type: ADME, organism-based, Adipose tissue; conditions: in vivo, 1 h
[30] = tested on: Plasma; test: Metabolic stability in Sprague-Dawley rat plasma assessed as 4-(1-Methyl-4-pyridin-4-yl-1H-pyrazol-3-yl)-phenol remaining after 40 mins; type: ADME, cell-free

- Drug uptake [1]: 0.066 % ID/g
- Activity [2]: 11.47%
- Drug uptake [3]: 0.035 % ID/g
- Drug uptake [4]: 0.047 % ID/g
- Activity [5]: 1.23%
- Drug uptake [6]: 0.059 % ID/g
- Activity [7]: 3.45%
- Drug uptake [8]: 1.229 % ID/g
- Drug uptake [9]: 0.169 % ID/g
- Drug uptake [10]: 0.164 % ID/g
- Drug uptake [11]: 0.123 % ID/g
- Drug uptake [12]: 0.133 % ID/g
- Drug uptake [13]: 0.075 % ID/g
- Drug uptake [14]: 3.395 % ID/g
- Drug uptake [15]: 0.068 % ID/g
- Drug uptake [16]: 0.098 % ID/g
- Drug uptake [17]: 0.155 % ID/g
- Drug uptake [18]: 0.044 % ID/g
- Drug uptake [19]: 0.05 % ID/g
- Drug uptake [20]: 0.133 % ID/g
- Drug uptake [21]: 0.039 % ID/g
- remaining at 40 min [22]: 84.7%
- Drug uptake [23]: 0.124 % ID/g
- Drug uptake [24]: 0.236 % ID/g
- Drug uptake [25]: 0.264 % ID/g
- Drug uptake [26]: 0.162 % ID/g
- Drug uptake [27]: 0.044 % ID/g
- Drug uptake [28]: 0.056 % ID/g
- Drug uptake [29]: 0.1 % ID/g
- Activity [30]: 35.19%
SMILES: [11CH3]n1cc(-c2ccncc2)c(-c2ccc(OCc3ccc4ccccc4n3)cc2)n1
